The values that follow come from patent US7452887B2, “Quinoline- and isoquinoline-based compounds exhibiting ATP-utilizing enzyme inhibitory activity, and compositions, and uses thereof” (Amphora Discovery Corporation, priority 2004, dated 2008).

Holding throughout (assay): HTS ATP-utilizing enzyme assay, off-chip mobility-shift (Caliper HTS 250)
What all share (assay type): biochemical
What all share (conditions): test compound 10 μM, kinase listed = active (greater than six-sigma from the mean activity of inactive compounds)

One assay addresses T1, PRAK (Homo sapiens, UniProt Q8IW41).
T1 sequence (Q8IW41 1-473): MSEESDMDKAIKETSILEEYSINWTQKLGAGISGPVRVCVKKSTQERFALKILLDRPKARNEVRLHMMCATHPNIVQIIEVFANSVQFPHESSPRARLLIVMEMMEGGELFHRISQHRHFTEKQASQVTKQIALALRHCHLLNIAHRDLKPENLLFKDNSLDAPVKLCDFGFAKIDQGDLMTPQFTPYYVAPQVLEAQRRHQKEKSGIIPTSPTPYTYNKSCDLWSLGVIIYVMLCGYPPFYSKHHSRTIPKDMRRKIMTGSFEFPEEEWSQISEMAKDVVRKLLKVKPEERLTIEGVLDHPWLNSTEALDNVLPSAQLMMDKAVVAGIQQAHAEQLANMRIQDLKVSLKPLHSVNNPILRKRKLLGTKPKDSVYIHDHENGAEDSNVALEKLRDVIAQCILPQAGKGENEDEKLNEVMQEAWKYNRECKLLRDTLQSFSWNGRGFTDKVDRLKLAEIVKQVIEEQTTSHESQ
In outline:
(§1)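 Compounds were tested once at 10 μM against kinase with peptide substrate. After 2.5 hrs at 20° C. to 22° C., reactions were terminated with EDTA, and conversion was read as substrate/product ratio by mobility shift.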

The target of another assay is T2, NEK2 (Homo sapiens, UniProt P51955).
T2 sequence (P51955 1-445): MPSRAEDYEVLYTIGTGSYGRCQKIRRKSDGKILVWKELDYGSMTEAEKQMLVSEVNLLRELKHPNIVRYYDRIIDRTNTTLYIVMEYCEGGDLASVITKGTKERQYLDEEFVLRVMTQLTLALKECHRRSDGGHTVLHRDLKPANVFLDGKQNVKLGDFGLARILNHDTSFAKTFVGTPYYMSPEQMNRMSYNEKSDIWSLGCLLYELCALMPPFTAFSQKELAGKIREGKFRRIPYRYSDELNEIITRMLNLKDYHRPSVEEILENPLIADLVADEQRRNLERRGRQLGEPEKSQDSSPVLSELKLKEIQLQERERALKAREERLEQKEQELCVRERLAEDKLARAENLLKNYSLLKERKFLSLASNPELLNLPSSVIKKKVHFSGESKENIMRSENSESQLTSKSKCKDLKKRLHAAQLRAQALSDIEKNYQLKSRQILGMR
An outline of the steps:
as §1

For a further assay, the target named is T3, CHEK1 (Homo sapiens, UniProt O14757).
T3 sequence (O14757 1-476): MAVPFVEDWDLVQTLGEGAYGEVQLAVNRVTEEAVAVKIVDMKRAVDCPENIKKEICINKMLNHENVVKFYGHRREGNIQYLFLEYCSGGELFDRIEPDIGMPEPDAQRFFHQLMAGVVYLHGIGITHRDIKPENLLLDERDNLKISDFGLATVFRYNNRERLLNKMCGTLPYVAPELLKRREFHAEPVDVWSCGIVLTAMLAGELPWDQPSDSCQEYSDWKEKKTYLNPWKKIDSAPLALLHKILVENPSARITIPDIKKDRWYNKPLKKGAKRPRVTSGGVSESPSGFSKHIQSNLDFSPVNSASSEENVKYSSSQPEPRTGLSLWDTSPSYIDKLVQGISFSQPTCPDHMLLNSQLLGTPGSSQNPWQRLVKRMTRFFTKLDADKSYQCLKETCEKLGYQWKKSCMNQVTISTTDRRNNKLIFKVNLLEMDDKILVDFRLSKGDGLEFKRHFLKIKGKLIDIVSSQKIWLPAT
An outline of the steps:
as §1

The next assay deals with MAPKAPK2 (Homo sapiens, UniProt P49137). An outline of the steps:
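Phosphorylation of a peptide substrate was quantified by Caliper mobility-shift separation of substrate and product after 2.5 h at 20-22 °C, with compounds tested at 10 μM. Inhibition was normalized to EDTA-quenched (100%) and DMSO (0%) controls; six-sigma thresholds flagged actives.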

In another assay the target is AKT3 (Homo sapiens, UniProt Q9Y243). In outline:
as §1

Another assay deals with KIT (Homo sapiens, UniProt P10721). In outline:
as §1

The target in a further assay is T4, FLT-3 (Homo sapiens, UniProt P36888).
T4 sequence (P36888 27-993): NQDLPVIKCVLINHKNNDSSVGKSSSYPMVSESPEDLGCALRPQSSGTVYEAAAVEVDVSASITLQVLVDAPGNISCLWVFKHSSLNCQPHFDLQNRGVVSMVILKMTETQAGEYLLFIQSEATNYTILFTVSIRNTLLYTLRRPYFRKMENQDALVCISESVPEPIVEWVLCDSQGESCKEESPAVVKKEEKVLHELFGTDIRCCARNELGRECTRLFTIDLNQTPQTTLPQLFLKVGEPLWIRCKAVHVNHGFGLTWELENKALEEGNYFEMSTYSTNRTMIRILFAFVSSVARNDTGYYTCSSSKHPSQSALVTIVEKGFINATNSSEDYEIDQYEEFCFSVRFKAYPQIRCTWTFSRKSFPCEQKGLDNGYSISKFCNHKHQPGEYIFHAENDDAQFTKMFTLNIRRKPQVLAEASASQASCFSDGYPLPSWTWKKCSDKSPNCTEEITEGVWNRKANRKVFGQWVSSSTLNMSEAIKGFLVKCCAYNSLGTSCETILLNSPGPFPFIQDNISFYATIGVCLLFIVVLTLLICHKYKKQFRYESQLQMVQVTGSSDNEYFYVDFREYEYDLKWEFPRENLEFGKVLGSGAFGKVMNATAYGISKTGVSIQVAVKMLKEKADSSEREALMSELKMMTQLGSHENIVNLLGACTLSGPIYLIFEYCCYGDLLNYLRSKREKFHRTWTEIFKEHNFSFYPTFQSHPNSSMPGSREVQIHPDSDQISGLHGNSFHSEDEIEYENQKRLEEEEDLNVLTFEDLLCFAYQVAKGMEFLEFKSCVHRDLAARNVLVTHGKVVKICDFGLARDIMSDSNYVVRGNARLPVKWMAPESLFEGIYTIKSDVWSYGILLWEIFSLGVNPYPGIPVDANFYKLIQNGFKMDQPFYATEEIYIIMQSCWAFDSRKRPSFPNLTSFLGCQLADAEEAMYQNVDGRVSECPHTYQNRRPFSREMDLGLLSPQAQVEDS
In outline: as §1

In a further assay the target is T5, BMX (Homo sapiens, UniProt P51813).
T5 sequence (P51813 1-675): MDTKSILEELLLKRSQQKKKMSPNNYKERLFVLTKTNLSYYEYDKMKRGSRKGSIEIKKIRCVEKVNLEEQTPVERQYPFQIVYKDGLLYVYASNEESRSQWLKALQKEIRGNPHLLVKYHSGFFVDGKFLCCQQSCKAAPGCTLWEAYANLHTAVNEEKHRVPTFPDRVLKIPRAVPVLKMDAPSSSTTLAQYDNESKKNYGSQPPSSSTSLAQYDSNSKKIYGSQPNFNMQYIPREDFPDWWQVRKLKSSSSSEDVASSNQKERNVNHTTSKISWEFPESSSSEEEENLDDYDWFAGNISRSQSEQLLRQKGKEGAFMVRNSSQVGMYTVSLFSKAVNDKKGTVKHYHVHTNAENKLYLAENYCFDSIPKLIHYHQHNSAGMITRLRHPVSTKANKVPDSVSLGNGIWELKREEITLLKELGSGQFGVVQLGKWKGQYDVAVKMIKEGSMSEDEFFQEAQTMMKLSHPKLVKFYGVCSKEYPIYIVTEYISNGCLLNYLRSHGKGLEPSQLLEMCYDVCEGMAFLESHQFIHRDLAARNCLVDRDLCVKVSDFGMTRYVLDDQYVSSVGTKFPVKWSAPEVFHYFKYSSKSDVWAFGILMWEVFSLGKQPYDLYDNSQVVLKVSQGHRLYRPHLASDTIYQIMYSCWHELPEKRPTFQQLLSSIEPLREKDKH
An outline of the steps:
as §1

The next assay deals with C-TAK1 (Homo sapiens, UniProt P27448). In outline: as §1
Chain of C-TAK1 (P27448 whole entry): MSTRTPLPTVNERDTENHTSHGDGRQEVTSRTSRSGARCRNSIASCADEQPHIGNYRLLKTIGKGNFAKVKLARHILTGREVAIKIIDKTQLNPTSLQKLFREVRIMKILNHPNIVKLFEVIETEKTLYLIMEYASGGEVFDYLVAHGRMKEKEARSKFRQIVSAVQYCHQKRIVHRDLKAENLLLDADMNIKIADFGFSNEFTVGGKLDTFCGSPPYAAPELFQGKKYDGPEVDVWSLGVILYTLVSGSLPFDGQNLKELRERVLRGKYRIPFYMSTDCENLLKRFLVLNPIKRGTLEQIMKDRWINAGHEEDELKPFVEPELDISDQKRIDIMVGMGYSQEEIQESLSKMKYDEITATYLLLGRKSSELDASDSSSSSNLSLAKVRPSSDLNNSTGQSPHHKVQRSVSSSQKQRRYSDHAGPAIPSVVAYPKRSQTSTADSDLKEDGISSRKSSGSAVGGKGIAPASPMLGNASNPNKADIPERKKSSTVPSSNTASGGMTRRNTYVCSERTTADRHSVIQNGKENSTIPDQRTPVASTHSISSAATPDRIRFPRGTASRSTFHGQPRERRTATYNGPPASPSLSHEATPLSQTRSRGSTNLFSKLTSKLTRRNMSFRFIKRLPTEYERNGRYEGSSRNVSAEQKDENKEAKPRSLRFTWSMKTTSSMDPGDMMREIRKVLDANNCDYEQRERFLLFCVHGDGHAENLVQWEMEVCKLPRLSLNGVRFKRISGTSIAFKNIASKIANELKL
The next assay has as its target GSK3-α (Homo sapiens, UniProt P49840). In outline:
as §1

The target in a further assay is CHEK2 (Homo sapiens, UniProt O96017). In outline:
as §1

Chain of MAPKAPK2 (P49137 whole entry): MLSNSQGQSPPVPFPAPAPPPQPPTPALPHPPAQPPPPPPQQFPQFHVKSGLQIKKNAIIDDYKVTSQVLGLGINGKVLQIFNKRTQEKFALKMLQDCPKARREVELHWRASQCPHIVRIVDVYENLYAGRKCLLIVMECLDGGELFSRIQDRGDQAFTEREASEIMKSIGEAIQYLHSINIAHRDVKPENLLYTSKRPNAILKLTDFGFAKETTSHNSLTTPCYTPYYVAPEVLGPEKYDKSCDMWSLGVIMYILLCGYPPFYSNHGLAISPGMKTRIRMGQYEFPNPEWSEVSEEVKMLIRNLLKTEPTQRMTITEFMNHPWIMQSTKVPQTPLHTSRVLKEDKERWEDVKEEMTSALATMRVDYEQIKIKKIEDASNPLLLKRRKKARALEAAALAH
Chain of AKT3 (Q9Y243 whole entry): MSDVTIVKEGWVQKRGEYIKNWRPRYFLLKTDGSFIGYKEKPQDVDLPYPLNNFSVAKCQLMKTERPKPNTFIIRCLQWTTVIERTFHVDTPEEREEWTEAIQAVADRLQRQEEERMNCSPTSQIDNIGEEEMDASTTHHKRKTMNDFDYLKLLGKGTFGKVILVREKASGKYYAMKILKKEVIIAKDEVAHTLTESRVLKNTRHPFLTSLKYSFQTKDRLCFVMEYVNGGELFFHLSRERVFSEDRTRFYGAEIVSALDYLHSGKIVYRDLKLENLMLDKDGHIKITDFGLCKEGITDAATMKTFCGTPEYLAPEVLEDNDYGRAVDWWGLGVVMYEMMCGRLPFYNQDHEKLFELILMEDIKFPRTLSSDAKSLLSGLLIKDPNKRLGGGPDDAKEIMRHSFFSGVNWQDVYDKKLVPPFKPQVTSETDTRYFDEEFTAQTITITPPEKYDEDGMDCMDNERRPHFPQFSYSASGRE
Chain of KIT (P10721 26-976): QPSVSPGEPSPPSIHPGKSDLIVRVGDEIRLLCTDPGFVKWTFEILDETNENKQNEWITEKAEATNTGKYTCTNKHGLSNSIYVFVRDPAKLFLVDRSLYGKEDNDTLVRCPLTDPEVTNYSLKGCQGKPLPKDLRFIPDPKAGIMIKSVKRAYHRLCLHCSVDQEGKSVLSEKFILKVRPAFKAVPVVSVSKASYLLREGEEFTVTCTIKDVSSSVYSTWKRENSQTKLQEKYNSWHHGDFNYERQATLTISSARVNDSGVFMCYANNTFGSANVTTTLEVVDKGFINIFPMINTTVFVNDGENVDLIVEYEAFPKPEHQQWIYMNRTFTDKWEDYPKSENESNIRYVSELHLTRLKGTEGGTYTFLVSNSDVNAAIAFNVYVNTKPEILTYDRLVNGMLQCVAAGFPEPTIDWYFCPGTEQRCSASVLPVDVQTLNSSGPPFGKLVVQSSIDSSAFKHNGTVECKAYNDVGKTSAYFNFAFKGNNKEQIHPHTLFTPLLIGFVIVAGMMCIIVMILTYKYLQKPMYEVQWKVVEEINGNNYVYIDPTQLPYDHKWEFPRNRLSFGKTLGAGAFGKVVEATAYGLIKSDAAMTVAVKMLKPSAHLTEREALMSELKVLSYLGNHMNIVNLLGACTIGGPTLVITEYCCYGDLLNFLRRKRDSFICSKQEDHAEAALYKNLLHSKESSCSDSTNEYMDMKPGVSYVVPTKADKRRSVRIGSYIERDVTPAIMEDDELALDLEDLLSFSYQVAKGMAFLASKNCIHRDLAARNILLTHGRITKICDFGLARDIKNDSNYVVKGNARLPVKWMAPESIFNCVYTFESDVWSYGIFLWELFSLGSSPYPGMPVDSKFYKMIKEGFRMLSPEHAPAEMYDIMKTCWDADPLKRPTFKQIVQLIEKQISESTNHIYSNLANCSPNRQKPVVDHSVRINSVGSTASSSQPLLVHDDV
Chain of GSK3-α (P49840 whole entry): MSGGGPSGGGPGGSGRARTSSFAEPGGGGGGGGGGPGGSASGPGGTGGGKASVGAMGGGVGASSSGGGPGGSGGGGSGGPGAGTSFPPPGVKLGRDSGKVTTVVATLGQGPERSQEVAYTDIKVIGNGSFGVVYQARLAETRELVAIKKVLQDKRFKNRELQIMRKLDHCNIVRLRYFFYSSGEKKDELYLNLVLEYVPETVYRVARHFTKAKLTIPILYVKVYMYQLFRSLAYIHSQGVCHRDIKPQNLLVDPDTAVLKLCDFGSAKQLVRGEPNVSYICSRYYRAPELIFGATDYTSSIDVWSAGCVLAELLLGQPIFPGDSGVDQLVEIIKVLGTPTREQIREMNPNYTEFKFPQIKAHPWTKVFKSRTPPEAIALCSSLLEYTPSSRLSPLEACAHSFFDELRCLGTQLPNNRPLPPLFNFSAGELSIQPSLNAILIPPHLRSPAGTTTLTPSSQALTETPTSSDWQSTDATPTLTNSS
Chain of CHEK2 (O96017 whole entry): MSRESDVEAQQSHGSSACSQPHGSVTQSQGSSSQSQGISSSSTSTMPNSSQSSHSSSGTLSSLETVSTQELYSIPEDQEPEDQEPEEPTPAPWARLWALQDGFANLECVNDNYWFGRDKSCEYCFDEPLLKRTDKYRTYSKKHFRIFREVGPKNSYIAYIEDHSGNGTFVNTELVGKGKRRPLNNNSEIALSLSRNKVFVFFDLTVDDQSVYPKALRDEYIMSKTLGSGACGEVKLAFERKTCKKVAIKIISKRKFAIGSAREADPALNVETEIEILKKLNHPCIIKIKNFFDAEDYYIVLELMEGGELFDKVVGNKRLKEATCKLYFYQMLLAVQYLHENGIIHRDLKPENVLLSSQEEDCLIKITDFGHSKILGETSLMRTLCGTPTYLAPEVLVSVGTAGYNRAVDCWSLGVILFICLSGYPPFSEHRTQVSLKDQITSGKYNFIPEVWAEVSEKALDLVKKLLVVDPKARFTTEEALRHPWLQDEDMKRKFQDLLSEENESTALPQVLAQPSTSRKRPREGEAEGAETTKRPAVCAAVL

On to `CN1CCN(c2ccc(Nc3ccnc4ccc(-c5cc(F)c(F)c(F)c5)cc34)cc2)CC1` [N-(4-(4-methylpiperazin-1-yl)phenyl)-6-(3,4,5-trifluorophenyl)quinolin-4-amine], for which the Activity entry on PRAK is reported as “PRAK”; at NEK2 it was “NEK2”; on CHEK1 it was “CHEK1”; at MAPKAPK2, “MAPKAPK2”.

`CN1CCN(c2ccc(Nc3ccnc4ccc(-c5cccnc5)cc34)cc2)CC1` [N-(4-(4-methylpiperazin-1-yl)phenyl)-6-(pyridin-3-yl)quinolin-4-amine]: the Activity result is given as “AKT3” on AKT3, “PRAK” on PRAK and “MAPKAPK2” on MAPKAPK2.

Regarding `CN1CCN(c2ccc(N(C)c3ccnc4ccc(-c5ccc(C#N)cc5)cc34)cc2)CC1` [4-(4-(methyl(4-(4-methylpiperazin-1-yl)phenyl)amino)quinolin-6-yl)benzonitrile], the Activity entry on KIT is recorded as “KIT”; on FLT-3, “FLT-3”; on BMX, “BMX”; at MAPKAPK2, “MAPKAPK2”.

`CN(C)CCN1CCN(c2ccc(Nc3ccnc4ccc(-c5ccc(C#N)cc5)cc34)cc2)CC1` [4-(4-(4-(4-(2-(dimethylamino)ethyl)piperazin-1-yl)phenylamino)quinolin-6-yl)benzonitrile]: the values for the Activity entry on C-TAK1, on CHEK1 and on MAPKAPK2 were “C-TAK1”, “CHEK1” and “MAPKAPK2”, respectively.

Turning to `CC(=O)Nc1cccc(-c2ccc3nccc(Nc4ccc(N5CCN(C)CC5)cc4)c3c2)c1` [N-(3-(4-(4-(4-methylpiperazin-1-yl)phenylamino)quinolin-6-yl)phenyl)acetamide], the Activity entry is reported as “GSK3-α” at GSK3-α, “PRAK” at PRAK and “MAPKAPK2” on MAPKAPK2.

Turning to `CN1CCN(c2ccc(Nc3ccnc4ccc(-c5ccc(C(F)(F)F)cc5)cc34)cc2)CC1` [N-(4-(4-methylpiperazin-1-yl)phenyl)-6-(4-(trifluoromethyl)phenyl)quinolin-4-amine], the Activity entry at PRAK is reported as “PRAK”; at C-TAK1, “C-TAK1”; on NEK2 it was “NEK2”; on CHEK1 it was “CHEK1”.

Consider `Cc1ccc(C)c(-c2ccc3nccc(Nc4ccc(N5CCN(C)CC5)cc4)c3c2)c1` [6-(2,5-dimethylphenyl)-N-(4-(4-methylpiperazin-1-yl)phenyl)quinolin-4-amine], for which the Activity entry on AKT3 is “AKT3”; on PRAK it was “PRAK”; at NEK2 it was “NEK2”; on MAPKAPK2 it was “MAPKAPK2”.

In the case of `CN1CCN(c2ccc(Nc3ccnc4ccc(-c5cccc(CO)c5)cc34)cc2)CC1` [(3-(4-(4-(4-methylpiperazin-1-yl)phenylamino)quinolin-6-yl)phenyl)methanol], the Activity result was “FLT3” on FLT-3, “PRAK” on PRAK, “CHEK2” on CHEK2 and “MAPKAPK2” on MAPKAPK2.

Take `CN1CCN(c2ccc(Nc3ccnc4ccc(-c5ccc(C(C)(C)C)cc5)cc34)cc2)CC1` [6-(4-tert-butylphenyl)-N-(4-(4-methylpiperazin-1-yl)phenyl)quinolin-4-amine]: the Activity entry at PRAK was “PRAK”; on C-TAK1, “C-TAK1”; on NEK2 it was “NEK2”; on CHEK1, “CHEK1”; at MAPKAPK2, “MAPKAPK2”.

Consider `CN1CCN(c2ccc(N(C)c3ccnc4ccc(-c5ccccc5)cc34)cc2)CC1` [N-methyl-N-(4-(4-methylpiperazin-1-yl)phenyl)-6-phenylquinolin-4-amine], for which the Activity entry at KIT is “KIT”; at FLT-3, “FLT-3”; on BMX it was “BMX”; on MAPKAPK2, “MAPKAPK2”.

For the compound `CN1CCN(c2ccc(Nc3ccnc4ccc(-c5cccc([N+](=O)[O-])c5)cc34)cc2)CC1` [N-(4-(4-methylpiperazin-1-yl)phenyl)-6-(3-nitrophenyl)quinolin-4-amine], the results for the Activity result on AKT3 and on PRAK were “AKT3” and “PRAK”, respectively.
